Results from patent US20070141673A1, “Tool for quantitative real-time analysis of viral gene expression dynamics in single living cells” (priority 2005, published 2007).

Experiments:
[1] = test system: HIV-1 VSV-G pseudotype (NL4.3-luc) in MDM cells; type: cell-based
[2] = test system: HIV-1 VSV-G pseudotype (NL4.3-luc) in MDM cells; type: cell-based; remark: listed apart in the source
[3] = test system: HIV-1 VSV-G pseudotype (NL4.3-luc) in MDM cells; type: cell-based; remark: listed apart in the source
[4] = test system: HIV-1 VSV-G pseudotype (NL4.3-luc) in CD4 T cells; type: cell-based
CD4 T cells = test: Flow-cytometry analysis of activation markers CD25 and CD69; type: cell-based, human; conditions: PHA treatment during three days before infection

O=C(O)C(=O)CC(=O)c1cccn1Cc1ccc(F)cc1 [L-731,988]
luciferase activity in cell lysates [1]: reduced in a dose-dependent manner | number of cells emitting bioluminescence [2]: reduction in the number of cells emitting bioluminescence | number of photons emitted per individual cell [2]: significant reduction in the number of photons emitted per individual cell | overall averaged bioluminescence intensity [2]: decreased

CCCCCCCCCCCCCC(=O)O[C@@H]1[C@@H](C)[C@@]2(O)[C@@H](C=C(CO)C[C@]3(O)C(=O)C(C)=C[C@@H]23)[C@@H]2C(C)(C)[C@]12OC(C)=O [PMA, phorbol 12-myristate 13-acetate]
time after stimulation at which bioluminescence signal began to increase [3]: 4 h

phytohemagglutinin [PHA]
duration of increase of photon emission until stable plateau level [4]: 4 h | positive lymphocytes (bioluminescence) in cells treated before infection [4]: abundant numbers of positive lymphocytes | time after mitogen stimulation at which photon emission began to be detected in formerly negative cells [4]: 8 h | global activation of CD4 T cells (CD4 T cells): > 98%
